In patent publication US10988523B2, “Modified lipidated Relaxin B chain peptides and their therapeutic use” (Sanofi, priority 2018, dated 2021):
*1 amine or outer side, *2 acyl side, *3 side chain or, on linkers, in order; H or OH if unused. Where a SMILES comes first, the peptide text is derived from it. Side-chain parts run from the residue outwards. [ ]: non-standard residue; d: D form. The star is where a group is joined. PEG12 = NCCOCCOCCOCCOCCOCCOCCOCCOCCOCCOCCOCCOCCC(=O)O; γGlu = O=C(O)[C@H](CCC(=O)[*:2])N[*:1]; Arg(Me) = CNC(=N)NCCC[C@H](N)C(=O)O; Stearoyl = CCCCCCCCCCCCCCCCCC(=O)*; Palmitoyl = CCCCCCCCCCCCCCCC(=O)*; Cit = NC(=O)NCCC[C@H](N)C(=O)O; αMeK = C[C@](N)(CCCCN)C(=O)O; Nle = CCCC[C@H](N)C(=O)O; AEEA = NCCOCCOCC(=O)O; Aib = CC(C)(N)C(=O)O

Target: T1, RXFP1 (Homo sapiens, UniProt Q9HBX9)
T1 construct: OVCAR5 cells expressing endogenous RXFP1; endogenous in cells; host or cells: OVCAR5 cells
T1 sequence (Q9HBX9 1-757): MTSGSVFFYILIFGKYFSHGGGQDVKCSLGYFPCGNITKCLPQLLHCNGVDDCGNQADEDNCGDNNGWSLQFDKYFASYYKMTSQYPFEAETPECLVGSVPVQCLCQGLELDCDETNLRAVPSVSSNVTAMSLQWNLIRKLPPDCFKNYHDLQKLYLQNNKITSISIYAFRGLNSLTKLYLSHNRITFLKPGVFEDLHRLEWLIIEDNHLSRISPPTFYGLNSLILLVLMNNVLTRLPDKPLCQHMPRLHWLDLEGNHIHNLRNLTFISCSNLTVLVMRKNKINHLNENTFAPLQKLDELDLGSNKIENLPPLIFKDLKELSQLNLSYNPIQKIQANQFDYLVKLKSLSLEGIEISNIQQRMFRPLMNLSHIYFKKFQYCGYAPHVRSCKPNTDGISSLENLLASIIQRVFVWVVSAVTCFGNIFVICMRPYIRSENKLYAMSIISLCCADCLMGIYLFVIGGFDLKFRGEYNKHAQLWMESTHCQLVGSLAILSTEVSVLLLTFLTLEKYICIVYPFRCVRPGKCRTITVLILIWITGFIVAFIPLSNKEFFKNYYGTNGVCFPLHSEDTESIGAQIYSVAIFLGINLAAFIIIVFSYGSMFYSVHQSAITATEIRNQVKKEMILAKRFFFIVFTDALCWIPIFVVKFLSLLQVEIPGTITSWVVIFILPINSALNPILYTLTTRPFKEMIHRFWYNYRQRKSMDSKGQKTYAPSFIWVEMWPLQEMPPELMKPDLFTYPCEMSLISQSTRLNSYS
Experiment: OVCAR5 cAMP assay (HTRF), RXFP1 agonist activity
Type: cell-based
Details: for Emax: OVCAR-5, maximal cAMP relative to H2-relaxin maximum (100%), read-out: EMax, OVCAR 5 cells (cAMP); for EC50: OVCAR5 cells, cAMP HTRF, read-out: EC50 (nM), OVCAR 5 cells (cAMP)
In short: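 OVCAR5 cells (endogenous RXFP1) pretreated 40 min at 37° C with 1 mM IBMX, then exposed to peptides in serum-free medium for 30 min at 37° C. Lysate cAMP read by HTRF; EC50 from variable-slope sigmoidal fit; Emax as % of H2-relaxin maximal cAMP in same run.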

Compound | Emax | EC50
CCCCCCCCCCCCCCCCCC(=O)N[C@@H](CCC(=O)NCCCC[C@H](NC(=O)CCOCCOCCOCCOCCOCCOCCOCCOCCOCCOCCOCCOCCNC(=O)[C@H](CCCCN)NC(=O)[C@H](CCCCN)NC(=O)[C@H](CCCNC(=N)N)NC(=O)C(C)(C)NC(=O)[C@H](CO)NC(=O)[C@H](Cc1c[nH]c2ccccc12)NC(=O)[C@@H](NC(=O)[C@H](CO)NC(=O)[C@H](CCCC)NC(=O)CNC(=O)[C@H](CCC(=O)O)NC(=O)C(C)(C)NC(=O)C(C)(C)NC(=O)[C@@H](NC(=O)[C@H](CCC(N)=O)NC(=O)[C@H](C)NC(=O)[C@H](CCCNC(=N)N)NC(=O)[C@@H](NC(=O)[C@H](CCCCN)NC(=O)[C@H](CCC(=O)O)NC(=O)[C@H](CCCNC(=N)N)NC(=O)CNC(=O)[C@H](CCC(=O)O)NC(=O)[C@H](CC(C)C)NC(C)=O)C(C)C)[C@@H](C)CC)[C@@H](C)O)C(N)=O)C(=O)O [compound 22] (Ac-LEGREKVRAQI[Aib][Aib]EG[Nle]STWS[Aib]RKK[PEG12]K([γGlu-Stearoyl])-NH2) | 104% | –
CCCCCCCCCCCCCCCCCC(=O)N[C@@H](CCC(=O)N[C@@H](CCC(=O)N[C@@H](CCC(=O)NCCOCCOCC(=O)NCCOCCOCC(=O)NCCOCCOCC(=O)NCCCC[C@H](NC(=O)[C@H](CCCCNC(C)=O)NC(=O)[C@H](C)NC(=O)[C@H](CCCNC(N)=O)NC(=O)C(C)(C)NC(=O)[C@H](CO)NC(=O)[C@H](Cc1c[nH]c2ccccc12)NC(=O)[C@@H](NC(=O)[C@H](CO)NC(=O)[C@H](CCCC)NC(=O)CNC(=O)[C@H](CCC(=O)O)NC(=O)C(C)(C)NC(=O)C(C)(C)NC(=O)[C@@H](NC(=O)[C@H](CCCCNC(C)=O)NC(=O)[C@H](C)NC(=O)[C@H](CCCNC(=N)N)NC(=O)[C@@H](NC(=O)[C@H](CCCCN)NC(=O)[C@H](CCC(=O)O)NC(=O)[C@H](CCCNC(=N)N)NC(=O)CNC(=O)[C@H](CCC(=O)O)NC(=O)[C@H](CC(C)C)NC(C)=O)C(C)C)[C@@H](C)CC)[C@@H](C)O)C(N)=O)C(=O)O)C(=O)O)C(=O)O [compound 126] (Ac-LEGREKVRAK(Ac)I[Aib][Aib]EG[Nle]STWS[Aib][Cit]AK(Ac)K([AEEA-AEEA-AEEA-γGlu-γGlu-γGlu-Stearoyl])-NH2) | 91% | –
CCCCCCCCCCCCCCCCCC(=O)N[C@@H](CCC(=O)N[C@@H](CCC(=O)N[C@@H](CCC(=O)NCCCC[C@H](NC(=O)CCOCCOCCOCCOCCOCCOCCOCCOCCOCCOCCOCCOCCNC(=O)[C@H](CCCCN)NC(=O)[C@H](CCCCN)NC(=O)[C@H](CCCNC(=N)N)NC(=O)C(C)(C)NC(=O)[C@H](CO)NC(=O)[C@H](Cc1c[nH]c2ccccc12)NC(=O)[C@@H](NC(=O)[C@H](CO)NC(=O)[C@H](CCCC)NC(=O)CNC(=O)[C@H](CCC(=O)O)NC(=O)C(C)(C)NC(=O)C(C)(C)NC(=O)[C@@H](NC(=O)[C@H](CCC(N)=O)NC(=O)[C@H](C)NC(=O)[C@H](CCCNC(=N)N)NC(=O)[C@@H](NC(=O)[C@H](CCCCN)NC(=O)[C@H](CCC(=O)O)NC(=O)[C@H](CCCNC(=N)N)NC(=O)CNC(=O)[C@H](CCC(=O)O)NC(=O)[C@H](CC(C)C)NC(C)=O)C(C)C)[C@@H](C)CC)[C@@H](C)O)C(N)=O)C(=O)O)C(=O)O)C(=O)O [compound 31] (Ac-LEGREKVRAQI[Aib][Aib]EG[Nle]STWS[Aib]RKK[PEG12]K([γGlu-γGlu-γGlu-Stearoyl])-NH2) | 86% | –
CCCCCCCCCCCCCCCC(=O)N[C@@H](CCC(=O)NCCCC[C@H](NC(=O)CC[C@H](NC(=O)CC[C@H](NC(=O)CC[C@H](NC(=O)COCCOCCNC(=O)COCCOCCNC(=O)COCCOCCNC(=O)COCCOCCNC(=O)[C@H](CCCCNC(C)=O)NC(=O)[C@H](C)NC(=O)[C@H](CCCNC(=N)NC)NC(=O)[C@](C)(CCCCN)NC(=O)[C@H](CO)NC(=O)[C@H](Cc1ccccc1)NC(=O)[C@@H](NC(=O)[C@H](CO)NC(=O)[C@H](CCCC)NC(=O)CNC(=O)[C@H](CCC(=O)O)NC(=O)C(C)(C)NC(=O)C(C)(C)NC(=O)[C@@H](NC(=O)[C@H](CCCCNC(C)=O)NC(=O)[C@H](C)NC(=O)[C@H](CCCNC(=N)N)NC(=O)[C@@H](NC(=O)[C@H](CCCCN)NC(=O)[C@H](CCC(=O)O)NC(=O)[C@H](CCCNC(=N)N)NC(=O)CNC(=O)[C@H](CCC(=O)O)NC(=O)[C@H](CC(C)C)NC(C)=O)C(C)C)[C@@H](C)CC)[C@@H](C)O)C(=O)O)C(=O)O)C(=O)O)C(N)=O)C(=O)O [compound 151] (Ac-LEGREKVRAK(Ac)I[Aib][Aib]EG[Nle]STFS[αMeK][Arg(Me)]AK(Ac)[AEEA][AEEA][AEEA][AEEA][γGlu][γGlu][γGlu]K([γGlu-Palmitoyl])-NH2) | 90% | 0.14 nM
CCCCCCCCCCCCCCCCCC(=O)N[C@@H](CCC(=O)N[C@@H](CCC(=O)N[C@@H](CCC(=O)N[C@@H](CCC(=O)NCCOCCOCC(=O)NCCOCCOCC(=O)NCCOCCOCC(=O)NCCCC[C@H](NC(=O)[C@H](CCCCN)NC(=O)[C@H](CCCCN)NC(=O)[C@H](CCCNC(=N)N)NC(=O)C(C)(C)NC(=O)[C@H](CO)NC(=O)[C@H](Cc1c[nH]c2ccccc12)NC(=O)[C@@H](NC(=O)[C@H](CO)NC(=O)[C@H](CCCC)NC(=O)CNC(=O)[C@H](CCC(=O)O)NC(=O)C(C)(C)NC(=O)C(C)(C)NC(=O)[C@@H](NC(=O)[C@H](CCC(N)=O)NC(=O)[C@H](C)NC(=O)[C@H](CCCNC(=N)N)NC(=O)[C@@H](NC(=O)[C@H](CCCCN)NC(=O)[C@H](CCC(=O)O)NC(=O)[C@H](CCCNC(=N)N)NC(=O)CNC(=O)[C@H](CCC(=O)O)NC(=O)[C@H](CC(C)C)NC(C)=O)C(C)C)[C@@H](C)CC)[C@@H](C)O)C(N)=O)C(=O)O)C(=O)O)C(=O)O)C(=O)O [compound 88] (Ac-LEGREKVRAQI[Aib][Aib]EG[Nle]STWS[Aib]RKKK([AEEA-AEEA-AEEA-γGlu-γGlu-γGlu-γGlu-Stearoyl])-NH2) | 74% | 0.11 nM
CCCCCCCCCCCCCCCC(=O)N[C@@H](CCC(=O)N[C@@H](CCC(=O)N[C@@H](CCC(=O)NCCOCCOCC(=O)NCCOCCOCC(=O)NCCCC[C@H](NC(=O)[C@H](CCCCNC(C)=O)NC(=O)[C@H](CCCCN)NC(=O)[C@H](CCCNC(=N)N)NC(=O)C(C)(C)NC(=O)[C@H](CO)NC(=O)[C@H](Cc1c[nH]c2ccccc12)NC(=O)[C@@H](NC(=O)[C@H](CO)NC(=O)[C@H](CCCC)NC(=O)CNC(=O)[C@H](CCC(=O)O)NC(=O)C(C)(C)NC(=O)C(C)(C)NC(=O)[C@@H](NC(=O)[C@H](CCCCNC(C)=O)NC(=O)[C@H](C)NC(=O)[C@H](CCCNC(=N)N)NC(=O)[C@@H](NC(=O)[C@H](CCCCN)NC(=O)[C@H](CCC(=O)O)NC(=O)[C@H](CCCNC(=N)N)NC(=O)CNC(=O)[C@H](CCC(=O)O)NC(=O)[C@H](CC(C)C)NC(C)=O)C(C)C)[C@@H](C)CC)[C@@H](C)O)C(N)=O)C(=O)O)C(=O)O)C(=O)O [compound 62] (Ac-LEGREKVRAK(Ac)I[Aib][Aib]EG[Nle]STWS[Aib]RKK(Ac)K([AEEA-AEEA-γGlu-γGlu-γGlu-Palmitoyl])-NH2) | 87% | –
CCCCCCCCCCCCCCCC(=O)N[C@@H](CCC(=O)N[C@@H](CCC(=O)N[C@@H](CCC(=O)NCCCC[C@H](NC(=O)CCOCCOCCOCCOCCOCCOCCOCCOCCOCCOCCOCCOCCNC(=O)[C@H](CCCCNC(C)=O)NC(=O)[C@H](CCCCN)NC(=O)[C@H](CCCNC(=N)N)NC(=O)C(C)(C)NC(=O)[C@H](CO)NC(=O)[C@H](Cc1c[nH]c2ccccc12)NC(=O)[C@@H](NC(=O)[C@H](CO)NC(=O)[C@H](CCCC)NC(=O)CNC(=O)[C@H](CCC(=O)O)NC(=O)C(C)(C)NC(=O)C(C)(C)NC(=O)[C@@H](NC(=O)[C@H](CCC(N)=O)NC(=O)C(C)(C)NC(=O)[C@H](CCCNC(=N)N)NC(=O)[C@@H](NC(=O)[C@H](CCCCN)NC(=O)[C@H](CCC(=O)O)NC(=O)[C@H](CCCNC(=N)N)NC(=O)CNC(=O)[C@H](CCC(=O)O)NC(=O)[C@H](CC(C)C)NC(C)=O)C(C)C)[C@@H](C)CC)[C@@H](C)O)C(N)=O)C(=O)O)C(=O)O)C(=O)O [compound 28] (Ac-LEGREKVR[Aib]QI[Aib][Aib]EG[Nle]STWS[Aib]RKK(Ac)[PEG12]K([γGlu-γGlu-γGlu-Palmitoyl])-NH2) | 78% | –
